In article PMC9506485, “Synthesis and Structure–Activity Relationships for the Anti-Mycobacterial Activity of 3-Phenyl-N-(Pyridin-2-ylmethyl)Pyrazolo[1,5-a]Pyrimidin-7-Amines” (Pharmaceuticals, 2022):
Converted amounts (≈) assume the structure as drawn.

How the values were obtained:
[1] = system: Mycobacterium tuberculosis (strain H37Rv); test: LORA minimum inhibitory concentration assay (low-oxygen/non-replicating); settings: M.tb H37Rv, 90% inhibition of growth
[2] = system: Mycobacterium tuberculosis (strain H37Rv); test: MABA minimum inhibitory concentration assay (aerobic/replicating); assay type: cell-based; settings: M.tb H37Rv; for MIC90: Mycobacterium tuberculosis, aerobic/replicating, 90% inhibition of growth; for anti-mycobacterial activity in words: MABA/LORA
[3] = Microsomal stability, mouse liver microsomes; assay type: in vitro ADME; settings: for CLint scaled at 1 μM / half-life at 1 μM: CD-1, mouse, microsomes, pH 7.4; for microsomal CLint at 1 μM: CD-1, pH 7.4, mouse liver microsomes, read-out: MLM Clint(mic)
Experimental: (§1) Assays were performed by WuXi AppTec (Shanghai) Co., Ltd. The test compounds (Table 4) (at 1 μM) were incubated at 37 °C with liver microsomes from human or CD-1 mice in the presence of a NADPH regenerating system and phosphate buffer (100 mM, pH 7.4) at 0.5 mg/mL microsomal protein (the positive controls were testosterone, propafenone, and diclofenac). Samples were removed at time intervals of 0, 5, 10, 20, 30, and 60 min and immediately mixed with cold CH3CN (containing 0.1 μg/mL of tolbutamide as an internal standard) and then centrifuged prior to analysis by LCMS/MS.

[4] = Microsomal stability, human liver microsomes; assay type: in vitro ADME; settings: pH 7.4; for CLint scaled at 1 μM / half-life at 1 μM: human, microsomes; for microsomal CLint at 1 μM: human liver microsomes, read-out: HLM Clint(mic)
Experimental: as §1

hERG = hERG (Homo sapiens, UniProt Q12809); test: hERG channel blockade, manual patch clamp; assay type: cell-based; settings: cloned hERG potassium channels, room temperature
Experimental: Selected compounds were evaluated for hERG channel blockade (Table 4) by WuXi AppTec (Shanghai) Co., Ltd. This was carried out using cloned hERG potassium channels according to their standard manual patch clamp method. Two concentrations (0.3 and 1.0 µM) were tested (at room temperature), and at least three replicates were obtained for each. Amitryptyline was used as a standard.

[5] = system: VERO green monkey kidney cells; test: VERO mammalian cell toxicity assay; assay type: cell-based; settings: Chlorocebus sabaeus; inhibition of growth of VERO green monkey kidney epithelial cells

Sequence of hERG (Q12809 whole entry): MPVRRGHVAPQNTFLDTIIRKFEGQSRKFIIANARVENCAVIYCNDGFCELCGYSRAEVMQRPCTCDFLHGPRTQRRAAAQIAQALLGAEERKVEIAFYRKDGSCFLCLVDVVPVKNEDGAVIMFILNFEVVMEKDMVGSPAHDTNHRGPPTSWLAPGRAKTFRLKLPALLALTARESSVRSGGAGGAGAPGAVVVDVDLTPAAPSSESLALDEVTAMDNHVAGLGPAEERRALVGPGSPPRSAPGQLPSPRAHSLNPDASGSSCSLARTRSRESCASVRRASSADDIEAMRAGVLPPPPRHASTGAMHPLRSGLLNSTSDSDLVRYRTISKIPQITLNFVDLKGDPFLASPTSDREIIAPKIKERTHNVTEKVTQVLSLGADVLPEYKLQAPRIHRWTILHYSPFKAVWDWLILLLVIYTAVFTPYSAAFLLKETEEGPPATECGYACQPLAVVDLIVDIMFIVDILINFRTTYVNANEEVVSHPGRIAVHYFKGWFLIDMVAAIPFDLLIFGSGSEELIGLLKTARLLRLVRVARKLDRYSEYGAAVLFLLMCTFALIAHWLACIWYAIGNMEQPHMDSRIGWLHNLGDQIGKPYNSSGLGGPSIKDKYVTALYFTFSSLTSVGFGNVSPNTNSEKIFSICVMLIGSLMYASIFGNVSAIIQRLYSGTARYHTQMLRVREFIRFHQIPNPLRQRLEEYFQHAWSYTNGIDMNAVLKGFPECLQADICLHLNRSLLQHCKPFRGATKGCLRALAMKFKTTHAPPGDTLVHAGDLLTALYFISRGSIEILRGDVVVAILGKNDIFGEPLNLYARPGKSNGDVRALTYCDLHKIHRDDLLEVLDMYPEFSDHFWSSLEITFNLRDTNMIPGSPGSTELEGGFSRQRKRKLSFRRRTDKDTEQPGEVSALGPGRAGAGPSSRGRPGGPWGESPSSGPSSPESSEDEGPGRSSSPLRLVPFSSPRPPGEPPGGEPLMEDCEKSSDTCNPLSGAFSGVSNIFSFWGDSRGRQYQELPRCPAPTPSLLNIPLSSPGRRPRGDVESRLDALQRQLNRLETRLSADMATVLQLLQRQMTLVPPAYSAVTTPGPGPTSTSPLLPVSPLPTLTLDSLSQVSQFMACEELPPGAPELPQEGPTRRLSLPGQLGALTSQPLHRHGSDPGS

Row | SMILES | MIC90 LORA [1] [µg/mL] | MIC90 [2] [µg/mL] | CLint scaled at 1 μM [3] [mL/min/kg] | half-life at 1 μM [3] [h] | microsomal CLint at 1 μM [3] [µL/min/mg] | CLint scaled at 1 μM [4] [mL/min/kg] | half-life at 1 μM [4] [h] | microsomal CLint at 1 μM [4] [µL/min/mg] | inhibition at 0.3 µM (hERG; 0.3 µM, read-out: hERG % inhib. at 0.3 µM) [%] | inhibition at 1 µM (hERG; 1.0 µM, read-out: hERG % inhib. at 1.0 µM) [%] | IC50 [5] [µg/mL] | melting point [°C] | anti-mycobacterial activity in words [2]
1 | CC(C)(C)c1ccc(-c2cc(NCc3ccccn3)n3ncc(-c4ccc(F)cc4)c3n2)cc1 [Compound 36, 5-(4-(Tert-butyl)phenyl)-3-(4-fluorophenyl)-N-(pyridin-2-ylmethyl)pyrazolo[1,5-a]pyrimidin-7-amine] | 1.9 (≈ 4.21 µM) | 1.7 (≈ 3.76 µM) | < 38 | > 2.42 | < 9.6 | < 8.6 | > 2.42 | < 9.6 | 0 | 0 | > 32 |  | 
2 | CCc1cc(NCc2ccccn2)n2ncc(-c3ccc(F)cc3)c2n1 [Compound 23, 5-Ethyl-3-(4-fluorophenyl)-N-(pyridin-2-ylmethyl)pyrazolo[1,5-a]pyrimidin-7-amine] | 0.45 (≈ 1.3 µM) | 1.4 (≈ 4.03 µM) |  |  |  |  |  |  |  |  | 14.1 (≈ 40.6 µM) | 137 to 138 | 
3 | Fc1ccc(-c2cnn3c(NCc4cccc(N5CCCCC5)n4)cc(-c4ccccc4)nc23)cc1 [Compound 50, 3-(4-Fluorophenyl)-5-phenyl-N-((6-(piperidin-1-yl)pyridin-2-yl)methyl)pyrazolo[1,5-a]pyrimidin-7-amine] | 1.75 (≈ 3.66 µM) | 0.25 (≈ 0.522 µM) |  |  |  |  |  |  |  |  | > 32 | 185 to 187 | 
4 | Fc1ccc(-c2cnn3c(NCc4cc(Cl)ccn4)cc(-c4ccccc4)nc23)cc1 [Compound 60, N-((4-Chloropyridin-2-yl)methyl)-3-(4-fluorophenyl)-5-phenylpyrazolo[1,5-a]pyrimidin-7-amine] | >32 | > 32 |  |  |  |  |  |  |  |  | > 32 | 220 to 222 | inactive
5 | Fc1ccc(-c2cnn3c(NCc4cc(N5CCCC5)ccn4)cc(-c4ccccc4)nc23)cc1 [Compound 64, 3-(4-Fluorophenyl)-5-phenyl-N-((4-(pyrrolidin-1-yl)pyridin-2-yl)methyl)pyrazolo[1,5-a]pyrimidin-7-amine] | 0.94 (≈ 2.02 µM) | 0.47 (≈ 1.01 µM) |  |  |  |  |  |  |  |  | 16 (≈ 34.4 µM) | 221 to 223 | 
6 | FC(F)(F)c1ccccc1-c1cnn2c(NCc3ccccn3)cc(-c3ccccc3)nc12 [Compound 13, 5-Phenyl-N-(pyridin-2-ylmethyl)-3-(2-(trifluoromethyl)phenyl)pyrazolo[1,5-a]pyrimidin-7-amine] | >32 | > 32 |  |  |  |  |  |  |  |  | > 32 | 166 to 168 | 
7 | COc1ccc(CNc2cc(-c3ccccc3)nc3c(-c4ccc(F)cc4)cnn23)nc1 [Compound 54, 3-(4-Fluorophenyl)-N-((5-methoxypyridin-2-yl)methyl)-5-phenylpyrazolo[1,5-a]pyrimidin-7-amine] | 1.3 (≈ 3.06 µM) | 3.6 (≈ 8.46 µM) | < 38 | > 2.42 | < 9.6 | < 8.6 | > 2.42 | < 9.6 |  |  | > 32 | 212 to 214 | 
8 | Fc1ccc(-c2cnn3c(NCc4ncccc4Br)cc(-c4ccccc4)nc23)cc1 [Compound 71, N-((3-Bromopyridin-2-yl)methyl)-3-(4-fluorophenyl)-5-phenylpyrazolo[1,5-a]pyrimidin-7-amine] | >32 | > 32 |  |  |  |  |  |  |  |  | > 32 | 189 to 191 | 
9 | COc1cccc(-c2cnn3c(NCc4ccccn4)cc(-c4ccccc4)nc23)c1 [Compound 16, 3-(3-Methoxyphenyl)-5-phenyl-N-(pyridin-2-ylmethyl)pyrazolo[1,5-a]pyrimidin-7-amine] | 10 (≈ 24.5 µM) | 7.6 (≈ 18.7 µM) |  |  |  |  |  |  |  |  | > 32 | 122 to 124 | 
10 | Fc1ccc(-c2cnn3c(NCc4cc(N5CCOCC5)ccn4)cc(-c4ccccc4)nc23)cc1 [Compound 66, 3-(4-Fluorophenyl)-N-((4-morpholinopyridin-2-yl)methyl)-5-phenylpyrazolo[1,5-a]pyrimidin-7-amine] | 0.98 (≈ 2.04 µM) | 0.06 (≈ 0.125 µM) |  |  |  |  |  |  |  |  | > 32 | 208 | 
11 | COc1cccc(CNc2cc(-c3ccccc3)nc3c(-c4ccc(F)cc4)cnn23)n1 [Compound 48, 3-(4-Fluorophenyl)-N-((6-methoxypyridin-2-yl)methyl)-5-phenylpyrazolo[1,5-a]pyrimidin-7-amine] | >32 | > 32 |  |  |  |  |  |  |  |  | > 32 | 163 to 165 | 
12 | FC(F)(F)c1ccc(-c2cnn3c(NCc4ccccn4)cc(-c4ccccc4)nc23)cc1 [Compound 21, 5-Phenyl-N-(pyridin-2-ylmethyl)-3-(4-(trifluoromethyl)phenyl)pyrazolo[1,5-a]pyrimidin-7-amine] | >32 | > 32 |  |  |  |  |  |  |  |  | > 32 | 188 to 190 | inactive
13 | N#Cc1cccnc1CNc1cc(-c2ccccc2)nc2c(-c3ccc(F)cc3)cnn12 [Compound 72, 2-(((3-(4-Fluorophenyl)-5-phenylpyrazolo[1,5-a]pyrimidin-7-yl)amino)methyl)nicotinonitrile] | >32 | > 32 |  |  |  |  |  |  |  |  | > 32 | 241 to 244 | 
14 | Fc1ccccc1-c1cnn2c(NCc3ccccn3)cc(-c3ccccc3)nc12 [Compound 11, 3-(2-Fluorophenyl)-5-phenyl-N-(pyridin-2-ylmethyl)pyrazolo[1,5-a]pyrimidin-7-amine] | >32 | > 32 |  |  |  |  |  |  |  |  | > 32 | 176 to 178 | 
15 | Cc1cccc(-c2cnn3c(NCc4ccccn4)cc(-c4ccccc4)nc23)c1 [Compound 15, 5-Phenyl-N-(pyridin-2-ylmethyl)-3-(m-tolyl)pyrazolo[1,5-a]pyrimidin-7-amine] | 30 (≈ 76.6 µM) | > 32 |  |  |  |  |  |  |  |  | > 32 | 172 to 174 | 
16 | Fc1ccc(-c2cnn3c(NCc4cccc(Br)n4)cc(-c4ccccc4)nc23)cc1 [Compound 46, N-((6-Bromopyridin-2-yl)methyl)-3-(4-fluorophenyl)-5-phenylpyrazolo[1,5-a]pyrimidin-7-amine] | >32 | > 32 |  |  |  |  |  |  |  |  | > 32 | 160 to 161 | 
17 | Fc1cccc(-c2cnn3c(NCc4ccccn4)cc(-c4ccccc4)nc23)c1 [Compound 14, 3-(3-Fluorophenyl)-5-phenyl-N-(pyridin-2-ylmethyl)pyrazolo[1,5-a]pyrimidin-7-amine] | >32 | > 32 |  |  |  |  |  |  |  |  | > 32 | 170 to 172 | 
18 | Cc1ccc(-c2cnn3c(NCc4ccccn4)cc(-c4ccccc4)nc23)cc1 [Compound 19, 5-Phenyl-N-(pyridin-2-ylmethyl)-3-(p-tolyl)pyrazolo[1,5-a]pyrimidin-7-amine] | >32 | > 32 |  |  |  |  |  |  |  |  | > 32 | 172 to 174 | inactive
19 | Fc1ccc(-c2cnn3c(NCc4cccc(F)n4)cc(-c4ccccc4)nc23)cc1 [Compound 45, 3-(4-Fluorophenyl)-N-((6-fluoropyridin-2-yl)methyl)-5-phenylpyrazolo[1,5-a]pyrimidin-7-amine] | >32 | > 32 |  |  |  |  |  |  |  |  | > 32 | 196 to 198 | 
20 | Fc1ccc(-c2cnn3c(NCc4ccc(N5CCCCC5)cn4)cc(-c4ccccc4)nc23)cc1 [Compound 59, 3-(4-Fluorophenyl)-5-phenyl-N-((5-(piperidin-1-yl)pyridin-2-yl)methyl)pyrazolo[1,5-a]pyrimidin-7-amine] | 0.85 (≈ 1.78 µM) | 0.96 (≈ 2.01 µM) |  |  |  |  |  |  |  |  | > 32 | 179 to 182 | 
21 | CN(C)c1cccnc1CNc1cc(-c2ccccc2)nc2c(-c3ccc(F)cc3)cnn12 [Compound 69, N-((3-(Dimethylamino)pyridin-2-yl)methyl)-3-(4-fluorophenyl)-5-phenylpyrazolo[1,5-a]pyrimidin-7-amine] | 0.49 (≈ 1.12 µM) | 1.5 (≈ 3.42 µM) |  |  |  |  |  |  |  |  | > 32 | 167 to 170 | 
22 | Cc1ccnc(CNc2cc(-c3ccccc3)nc3c(-c4ccc(F)cc4)cnn23)c1 [Compound 62, 3-(4-Fluorophenyl)-N-((4-methylpyridin-2-yl)methyl)-5-phenylpyrazolo[1,5-a]pyrimidin-7-amine] | 0.5 (≈ 1.22 µM) | 1.8 (≈ 4.4 µM) | < 38 | > 2.42 | < 9.6 | < 8.6 | > 2.42 | < 9.6 |  |  | > 32 | 157 to 159 | 
